Our source for the IC50 values is US8518912B2, “Phosphonic acid derivates and their use as P2Y12 receptor antagonists” (Actelion Pharmaceuticals Ltd., priority 2008, dated 2013).

In the first test the target is T1, human P2Y12 receptor (Homo sapiens, UniProt Q9H244).
T1 construct: expressed in transfected cells; host or cells: Chinese Hamster Ovary (CHO) cells
T1 sequence (Q9H244 whole entry): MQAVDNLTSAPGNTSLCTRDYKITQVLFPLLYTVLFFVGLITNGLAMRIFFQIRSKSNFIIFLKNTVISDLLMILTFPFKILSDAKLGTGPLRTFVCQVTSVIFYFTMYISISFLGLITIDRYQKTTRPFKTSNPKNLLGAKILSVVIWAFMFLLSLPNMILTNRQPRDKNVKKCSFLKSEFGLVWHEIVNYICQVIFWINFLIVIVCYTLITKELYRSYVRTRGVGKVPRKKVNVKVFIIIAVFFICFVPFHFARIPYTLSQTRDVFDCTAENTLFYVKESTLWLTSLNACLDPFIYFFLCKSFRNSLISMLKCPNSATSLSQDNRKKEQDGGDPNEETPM
Put plainly: P2Y12 receptor binding assay. The settings on record: CHO cells with recombinant human P2Y12 receptor; tritium-labeled 2-methyl-S-ADP; 2 hours at RT. Here is the method:
Chinese Hamster Ovary (CHO) cells with recombinant expression of the human P2Y12 receptor were cultured in 24 well cell-culture plates. Cells were washed three times with binding buffer (50 mM Tris pH 7.4, 100 mM NaCl, […], 0.5% BSA). The cells were then incubated with 0.5 ml per well binding buffer containing tritium-labeled 2-methyl-thio-adenosine 5′-diphosphate (2-methyl-S-ADP) (between 100,000 and 300,000 dpm per well) and various concentrations of test compounds. After incubation at RT for 2 hours, cells were washed three times with binding buffer. Then, cells were solubilized by addition of 0.5 ml solubilization buffer (SDS, NaOH, EDTA). The content of each well was then transferred into beta-counter vials and 2.0 ml of Ultima Gold Scintillation liquid was added.
One may read the IC50 as the concentration needed to halve the response being measured. On to `CCCCOC(=O)N1CCN(C(=O)[C@H](CP(=O)(OCOC(=O)CCC)OCOC(=O)CCC)NC(=O)c2cc(N3CC[C@H](OC)C3)nc(-c3ccccc3)n2)CC1` [Example 78, 4-((R)-3-(Bis-butyryloxymethoxy-phosphoryl)-2-{[6-((S)-3-methoxy-pyrrolidin-1-yl)-2-phenyl-pyrimidine-4-carbonyl]-amino}-propionyl)-piperazine-1-carboxylic acid butyl ester], for which the IC50 was found to be 7 nM. Take `CCCCOC(=O)N1CCN(C(=O)[C@H](CCP(=O)(O)O)NC(=O)c2cc(-n3cccn3)nc(-c3ccccc3)n2)CC1` [Example 7, 4-{(S)-2-[(2-phenyl-6-pyrazol-1-yl-pyrimidine-4-carbonyl)-amino]-4-phosphono-butyryl}-piperazine-1-carboxylic acid butyl ester]: the IC50 is 3.2 nM. For the molecule `CCOC(=O)N1CCN(C(=O)[C@H](CP(=O)(O)O)NC(=O)c2cc(N3CC[C@H](OC)C3)nc(-c3ccccc3)n2)CC1C` (stereo partly drawn) [Example 38, 4-((R)-2-{[6-((S)-3-methoxy-pyrrolidin-1-yl)-2-phenyl-pyrimidine-4-carbonyl]-amino}-3-phosphono-propionyl)-2-methyl-piperazine-1-carboxylic acid ethyl ester], the IC50 was found to be 61 nM.

As to `CCCCOC(=O)N1CCN(C(=O)[C@H](CP(=O)(O[C@@H](C)C(=O)OCC)O[C@@H](C)C(=O)OCC)NC(=O)c2cc(N3CC[C@H](OC)C3)nc(-c3ccccc3)n2)CC1` [Example 107, 4-((R)-3-[Bis-((S)-1-ethoxycarbonyl-ethoxy)-phosphoryl]-2-{[6-((S)-3-methoxy-pyrrolidin-1-yl)-2-phenyl-pyrimidine-4-carbonyl]-amino}-propionyl)-piperazine-1-carboxylic acid butyl ester], the IC50 came to 153 nM.

In the case of `CCCCOC(=O)N1CCN(C(=O)[C@H](CP(=O)(O)O)NC(=O)c2cc(CCCOC)nc(-c3ccccc3)n2)CC1` [Example 45, 4-((R)-2-{[6-(3-methoxy-propyl)-2-phenyl-pyrimidine-4-carbonyl]-amino}-3-phosphono-propionyl)-piperazine-1-carboxylic acid butyl ester], the IC50 was 5.5 nM. Regarding `CCCCOC(=O)N1CCN(C(=O)[C@H](CP(=O)(NC(C)(C)C(=O)OCC)NC(C)(C)C(=O)OCC)NC(=O)c2cc(N3CC[C@H](OC)C3)nc(-c3ccccc3)n2)CC1` [Example 92, N,N′-Bis-(2-ethoxycarbonyl-prop-2-yl)-2-{(R)-[6-((S)-3-methoxy-pyrrolidin-1-yl)-2-phenyl-pyrimidine-4-carbonyl]-amino}-3-oxo-3-(4-butoxy-carbonyl-piperazin-1-yl)-propyl-phosphonic acid diamide], the IC50 was determined as 42 nM. With `CCCCOC(=O)N1CCN(C(=O)[C@H](CCP(=O)(OCOC(=O)C(C)(C)C)OCOC(=O)C(C)(C)C)NC(=O)c2cc(N3CC[C@H](OC)C3)nc(-c3ccccc3)n2)CC1` [Example 48, 4-((S)-4-[bis-(2,2-dimethyl-propionyloxymethoxy)-phosphoryl]-2-{[6-((S)-3-methoxy-pyrrolidin-1-yl)-2-phenyl-pyrimidine-4-carbonyl]-amino}-butyryl)-piperazine-1-carboxylic acid butyl ester], the IC50 turned out to be 49 nM. On to `CCCCOC(=O)N1CCN(C(=O)[C@H](CP(=O)(N[C@@H](Cc2ccccc2)C(=O)OC)N[C@@H](Cc2ccccc2)C(=O)OC)NC(=O)c2cc(N3CC[C@H](OC)C3)nc(-c3ccccc3)n2)CC1` [Example 87, N,N′-Bis-((S)-1-methoxycarbonyl-2-phenyl-ethyl)-2-{(R)-[6-((S)-3-methoxy-pyrrolidin-1-yl)-2-phenyl-pyrimidine-4-carbonyl]-amino}-3-oxo-3-(4-butoxy-carbonyl-piperazin-1-yl)-propyl-phosphonic acid diamide], for which the IC50 came out at 11 nM.

With `CCCCOC(=O)N1CCN(C(=O)[C@H](CCP(=O)(O)O)NC(=O)c2cc(N3CC[C@H](OC)C3)nc(-c3cccc(F)c3)n2)CC1` [Example 21, 4-((S)-2-{[2-(3-fluoro-phenyl)-6-((S)-3-methoxy-pyrrolidin-1-yl)-pyrimidine-4-carbonyl]-amino}-4-phosphono-butyryl)-piperazine-1-carboxylic acid butyl ester], the IC50 was found to be 78 nM. `CCOC(=O)N1CCN(C(=O)[C@H](Cc2ccc(CP(=O)(O)O)cc2)NC(=O)c2cc(N3CC[C@H](OC)C3)nc(-c3ccccc3)n2)CC1` [Example 61, 4-[(S)-2-{[6-((S)-3-Methoxy-pyrrolidin-1-yl)-2-phenyl-pyrimidine-4-carbonyl]-amino}-3-(4-phosphonomethyl-phenyl)-propionyl]-piperazine-1-carboxylic acid ethyl ester]: the IC50 stood at 7.5 nM. For the molecule `CCCC(=O)OCOP(=O)(OCOC(=O)CCC)c1ccc(C[C@H](NC(=O)c2cc(N3CC[C@H](OC)C3)nc(-c3ccccc3)n2)C(=O)N2CCN(C(=O)OCC)CC2)cc1` [Example 124, 4-((S)-3-[4-(Bis-(butyryloxy-methoxy)-phosphoryl)-phenyl]-2-{[6-((S)-3-methoxy-pyrrolidin-1-yl)-2-phenyl-pyrimidine-4-carbonyl]-amino}-propionyl)-piperazine-1-carboxylic acid ethyl ester], the IC50 is 36 nM.

The test system of a further test is ADP induced platelet aggregation. The experiment in a line: Light transmission platelet aggregation assay. Conditions: human platelet-rich plasma; ADP at 1-5 μM final concentration; 2 minutes preincubation at 37° C. Type of test: cell-based. Here is the method: After obtaining informed consent, blood was obtained by vein puncture from healthy volunteers using a thrombin inhibitor as the anticoagulant. Platelet-rich plasma (PRP) was removed after centrifugation at 20° C. for 10 minutes at 200 g and allowed to equilibrate at 37° C. Part of the blood was centrifuged for 10 minutes at 5000 g to yield platelet poor plasma (PPP).
Light transmission platelet aggregation was carried out according to the method of Born & Cross (G. V. R. Born and M. J. Cross, J. Physiol. (1963), 168, 178-195) using a Chronolog lumiaggregometer with stirring (1000 rpm) at 37° C. PRP was placed into the cuvette and allowed to equilibrate at 37° C. for two minutes. In a first phase, the ADP concentration to give optimal extent of aggregation was determined for the PRP of each donor. In a second phase, PRP was incubated with inhibitors for 2 minutes at 37° C. prior to the addition of the agonist ADP at 1-5 μM final concentration. The change in light transmission, indicative of ongoing aggregation, was monitored during 5 minutes. The extent of platelet aggregation was calculated relative to light absorbance of PRP (not aggregated) and PPP (full aggregation).
Regarding `CCCCOC(=O)N1CCN(C(=O)[C@H](CP(=O)(O)O)NC(=O)c2cc(N3CC[C@H](OC)C3)nc(-c3ccccc3)n2)CC1` [Example 2, 4-((R)-2-{[6-((S)-3-methoxy-pyrrolidin-1-yl)-2-phenyl-pyrimidine-4-carbonyl]-amino}-3-phosphono-propionyl)-piperazine-1-carboxylic acid butyl ester], the IC50 turned out to be 8 nM.

Turning to `CCOC(=O)N1CCN(C(=O)[C@H](Cc2ccc(P(=O)(O)O)cc2)NC(=O)c2cc(N3CC[C@H](OC)C3)nc(-c3ccccc3)n2)CC1` [Example 59, 4-[(S)-2-{[6-((S)-3-Methoxy-pyrrolidin-1-yl)-2-phenyl-pyrimidine-4-carbonyl]-amino}-3-(4-phosphono-phenyl)-propionyl]-piperazine-1-carboxylic acid ethyl ester], 4 nM corresponded to half-maximal inhibition (IC50).

The molecule `CCOC(=O)N1CCN(C(=O)[C@H](CP(=O)(O)O)NC(=O)c2cc(N3CC[C@H](OC)C3)nc(-c3ccccc3)n2)CC1` [Example 1, 4-((R)-2-{[6-((S)-3-methoxy-pyrrolidin-1-yl)-2-phenyl-pyrimidine-4-carbonyl]-amino}-3-phosphono-propionyl)-piperazine-1-carboxylic acid ethyl ester] yielded an IC50 of 10 nM.

For `CCOC(=O)N1CCN(C(=O)[C@H](CCP(=O)(O)O)NC(=O)c2cc(N3CC[C@H](OC)C3)nc(-c3ccccc3)n2)CC1` [Example 4, 4-((S)-2-{[6-((S)-3-methoxy-pyrrolidin-1-yl)-2-phenyl-pyrimidine-4-carbonyl]-amino}-4-phosphono-butyryl)-piperazine-1-carboxylic acid ethyl ester], the IC50 worked out at 21 nM.

Molecule `CCCCOC(=O)N1CCN(C(=O)[C@H](CC(=O)O)NC(=O)c2cc(N3CC[C@H](OC)C3)nc(-c3ccccc3)n2)CC1` [reference compound] gave an IC50 of 91 nM. On to `CCOC(=O)N1CCN(C(=O)[C@H](CCC(=O)O)NC(=O)c2cc(N3CC[C@H](OC)C3)nc(-c3ccccc3)n2)CC1` [reference compound], for which the IC50 is 32 nM.

For `CCCCOC(=O)N1CCN(C(=O)[C@H](CCC(=O)O)NC(=O)c2cc(N3CC[C@H](OC)C3)nc(-c3ccccc3)n2)CC1` [reference compound], inhibition was half-maximal at 21 nM (IC50).

Take `CCCCOC(=O)N1CCN(C(=O)[C@H](CCP(=O)(O)O)NC(=O)c2cc(N3CC[C@H](OC)C3)nc(-c3ccccc3)n2)CC1` [Example 5, 4-((S)-2-{[6-((S)-3-methoxy-pyrrolidin-1-yl)-2-phenyl-pyrimidine-4-carbonyl]-amino}-4-phosphono-butyryl)-piperazine-1-carboxylic acid butyl ester]: it took 1 nM to reach half-maximal inhibition (IC50). Still for that read-out and setting: with `CCOC(=O)N1CCN(C(=O)[C@H](CC(=O)O)NC(=O)c2cc(N3CC[C@H](OC)C3)nc(-c3ccccc3)n2)CC1` [reference compound] the figure was 138 nM. For the molecule `CCOC(=O)N1CCN(C(=O)[C@H](Cc2ccc(C(=O)O)cc2)NC(=O)c2cc(N3CC[C@H](OC)C3)nc(-c3ccccc3)n2)CC1` [reference compound], inhibition was half-maximal at 226 nM (IC50).
